{"source": "patent US20180021277A1", "about": "“ANTI-VIRULENCE COMPOSITIONS AND METHODS” (priority 2012, published 2018)", "key": {"[1]": {"test_system": "Bacillus cereus", "experiment": "Host cell damage assay (LDH leakage), Bacillus cereus", "format": "cell-based", "conditions": "THP-1 human monocytes", "description": "(§1) Damage to host cells was measured by leakage of lactate dehydrogenase (LDH) with the CytoTox 96 Non-Radioactive Cytotoxicity LDH Assay Promega Kits G178 and G1782 according to manufacturer's instructions.\n(§2) Overnight cultures of the bacterial strain to be tested were spun down, washed, diluted 1:4 and incubated with broth containing 10-50 μg/ml of F19 or containing 2% DMSO as control. The bacteria were cultured at 37° C., in a shaking incubator for 6 h at which time 20 μL of bacterial culture was added to 5×10^4 THP-1 monocytes or J774.2 macrophages in 100 μL of cell media (DMEM for J774.2 cells and RPMI for THP-1 cells) in 96 well plates. Bacteria and macrophage/monocytes were incubated together for 40 min at 37° C. Plates were then spun at 250 g for 4 min and 50 μL of the supernatant was removed to a new 96 well plate. 50 μL of substrate mix+assay buffer were added and incubated at room temperature for 10-30 min depending upon the rate of product formation and stopped by addition of 50 μL stop solution. The colorometric products were read at 490 nm on a Victor 3 plate reader. The data presented are from experiments performed in triplicate.\n(§3) Gram-positive pathogens compromise host cell defense factors by puncturing membranes of immune system cells. To examine F19 efficacy in preventing host cell damage by various pathogens cell lysis assays were carried out by measuring leakage of lactate dehydrogenase (LDH) from cells. F19 indeed inhibits pathogen-mediated lysis of human THP-1 monocytes and mouse macrophage cell line J7774.2 by a series of Gram-positive pathogens, including MRSA, MRSE, Streptococcus pyogenes, Streptococcus pneumoniae and Bacillus cereus in a dose dependent manner (Table 2 for MRSA, Table 4 for other pathogens)."}, "[2]": {"test_system": "Strepococcus pyogenes AC7", "experiment": "Host cell damage assay (LDH leakage), Streptococcus pyogenes", "format": "cell-based", "conditions": "THP-1 human monocytes", "description": "as §1\nas §2, with “Overnight cultures of the bacterial strain to be tested were spun down, washed, diluted 1:4 and incubated with broth containing 10-50 μg/ml of F19 or containing 2% DMSO as control.” left out\nas §3"}, "[3]": {"target": "T1, AgrA_C from Staphylococcus epidermidis (Staphylococcus epidermidis, UniProt Q5HMY2)", "T1 sequence (Q5HMY2 143-238 limits assumed)": "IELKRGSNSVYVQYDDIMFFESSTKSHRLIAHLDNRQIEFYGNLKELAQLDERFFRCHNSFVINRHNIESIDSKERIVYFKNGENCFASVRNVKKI", "experiment": "Microscale thermophoresis binding to AgrA_C from S. epidermidis", "conditions": "compared with S. aureus AgrA_C; data not shown", "description": "The AgrA C proteins from S. aureus and S. epidermidis were fluorescently labeled with Alexa Fluor 647 NHS ester and purified on Zeba spin columns. Compound F19 was diluted as a gradient through the capillaries while protein concentrations were maintained constant. Measurements were performed on a Nanotemper Monolith NT.115 apparatus. Lysozyme and known inhibitor N,N′,N″-triacetylchitotriose (Fisher Scientific) were used as controls."}, "[4]": {"test_system": "MRSE Q-15", "experiment": "Host cell damage assay (LDH leakage), MRSE", "format": "cell-based, Staphylococcus epidermidis", "conditions": "for % Damage (LDH Leakage): THP-1 human monocytes; for Damage (%): Table 2, control = 100", "description": "as §1\nas §2, with “Overnight cultures of the bacterial strain to be tested were spun down, washed, diluted 1:4 and incubated with broth containing 10-50 μg/ml of F19 or containing 2% DMSO as control.” left out\nas §3"}, "[5]": {"test_system": "MRSE Q-15", "experiment": "RT-qPCR of virulence gene transcription in MRSE", "conditions": "50 μg/mL F19"}, "[6]": {"target": "T2, AgrA_C I238A, V235A, V232A and double mutants (Staphylococcus aureus, UniProt P0A0I7, I238A)", "T2 construct": "made in house", "T2 sequence (P0A0I7 143-238 I238A)": "T1 sequence (Q5HMY2 143-238 limits assumed) with A48S, E52D, I63V, G83K, N85H, F87Y, I96A", "experiment": "Microscale thermophoresis binding to AgrA_C alanine mutants", "conditions": "data not shown"}, "[7]": {"target": "T3, AgrA_C I238A, V235A, V232A and double mutants (Staphylococcus aureus, UniProt P0A0I7, V232A)", "T3 construct": "made in house", "T3 sequence (P0A0I7 143-238 V232A)": "T1 sequence (Q5HMY2 143-238 limits assumed) with A48S, E52D, I63V, G83K, N85H, F87Y, V90A", "experiment": "Microscale thermophoresis binding to AgrA_C alanine mutants"}, "[8]": {"target": "T4, AgrA_C I238A, V235A, V232A and double mutants (Staphylococcus aureus, UniProt P0A0I7, V235A)", "T4 construct": "made in house", "T4 sequence (P0A0I7 143-238 V235A)": "T1 sequence (Q5HMY2 143-238 limits assumed) with A48S, E52D, I63V, G83K, N85H, F87Y, V93A", "experiment": "Microscale thermophoresis binding to AgrA_C alanine mutants", "conditions": "data not shown"}, "[9]": {"target": "T5, AgrA_C I238A, V235A, V232A and double mutants (Staphylococcus aureus, UniProt P0A0I7, I238A/V235A)", "T5 construct": "made in house", "T5 sequence (P0A0I7 143-238 V235A/I238A)": "T1 sequence (Q5HMY2 143-238 limits assumed) with A48S, E52D, I63V, G83K, N85H, F87Y, V93A, I96A", "experiment": "Microscale thermophoresis binding to AgrA_C alanine mutants"}, "[10]": {"test_system": "MRSA USA300", "experiment": "Emergence of resistance in vitro: daily passaging with hemolysis read-out", "format": "cell-based, Staphylococcus aureus", "conditions": "50 μg/mL, 16 daily passages; listed as F19"}, "[11]": {"test_system": "MRSA", "experiment": "CFU counts of F19 treated vs. untreated MRSA cultures (serial dilution-plating)", "format": "cell-based, Staphylococcus aureus"}, "[12]": {"test_system": "MRSA strain lacking the agr operon (Lac Δagr)", "experiment": "Biofilm formation in MRSA strain lacking the agr operon", "format": "cell-based, Staphylococcus aureus", "conditions": "data not shown"}}, "note": "Changes are numbered by the printed parent chain. Entries after “also recorded” stand apart in the source; their conditions may differ."}
{"smiles": "CCCCCCc1cc(C(=O)COc2ccc(C(C)C)cc2)c(O)cc1O", "note": "[4f-19]", "values": [{"measurement": "% Damage (LDH Leakage)", "setting": "[1]; F19 30 μg/mL", "result": "63.7 ± 1.3", "unit": "%"}, {"measurement": "% Damage (LDH Leakage)", "setting": "[1]; F19 40 μg/mL", "result": "52.0 ± 0.1", "unit": "%"}, {"measurement": "% Damage (LDH Leakage)", "setting": "[1]; F19 50 μg/mL", "result": "69.7 ± 1.2", "unit": "%"}, {"measurement": "% Damage (LDH Leakage)", "setting": "[2]; F19 5 μg/mL", "result": "97.4 ± 0.7", "unit": "%"}, {"measurement": "% Damage (LDH Leakage)", "setting": "[2]; F19 10 μg/mL", "result": "88.4 ± 1.9", "unit": "%"}, {"measurement": "% Damage (LDH Leakage)", "setting": "[2]; F19 20 μg/mL", "result": "73.6 ± 0.5", "unit": "%"}, {"measurement": "% Damage (LDH Leakage)", "setting": "[2]; F19 30 μg/mL", "result": "56.2 ± 3.4", "unit": "%"}, {"measurement": "% Damage (LDH Leakage)", "setting": "[2]; F19 40 μg/mL", "result": "38.7 ± 1.8", "unit": "%"}, {"measurement": "affinity to AgrA_C from Staphylococcus epidermidis", "setting": "[3]", "result": "Statistically identical affinity"}, {"measurement": "% Damage (LDH Leakage)", "setting": "[4]; F19 1 μg/mL", "result": "85.5 ± 2.6", "unit": "%"}, {"measurement": "% Damage (LDH Leakage)", "setting": "[4]; F19 5 μg/mL", "result": "62.6 ± 1.1", "unit": "%"}, {"measurement": "% Damage (LDH Leakage)", "setting": "[4]; F19 10 μg/mL", "result": "48.1 ± 1.1", "unit": "%"}, {"measurement": "% Damage (LDH Leakage)", "setting": "[4]; F19 20 μg/mL", "result": "26.5 ± 0.5", "unit": "%"}, {"measurement": "% Damage (LDH Leakage)", "setting": "[4]; F19 30 μg/mL", "result": "22.1 ± 0.6", "unit": "%"}, {"measurement": "% Damage (LDH Leakage)", "setting": "[4]; F19 40 μg/mL", "result": "19.6 ± 1.1", "unit": "%"}, {"measurement": "Damage (%)", "setting": "[4]; F19 1 μg/ml", "result": "85.5 ± 2.6", "unit": "%"}, {"measurement": "Damage (%)", "setting": "[4]; F19 10 μg/ml", "result": "48.1 ± 1.1", "unit": "%"}, {"measurement": "Damage (%)", "setting": "[4]; F19 50 μg/ml", "result": "15.7 ± 0.5", "unit": "%"}, {"measurement": "inhibition of AtlE transcription", "setting": "[5]", "result": 1910, "unit": "fold"}, {"measurement": "inhibition of psm-α transcription", "setting": "[5]", "result": 5043, "unit": "fold"}, {"measurement": "reduction of affinity by I238A mutant", "setting": "[6]", "result": 14, "unit": "fold"}, {"measurement": "affinity to V232A mutant", "setting": "[7]", "result": "no loss of affinity"}, {"measurement": "reduction of affinity by V235A mutant", "setting": "[8]", "result": 5, "unit": "fold"}, {"measurement": "binding to the I238A/V235A double mutant", "setting": "[9]", "result": "very weak binding at the background level of the instrument"}, {"measurement": "emergence of resistance/tolerance: hemolysis of rabbit blood over daily passages", "setting": "[10]", "result": "no increase in hemolysis; also recorded: No emergence of resistance"}, {"measurement": "CFU counts, F19 treated vs. untreated cultures", "setting": "[11]", "result": "identical CFU counts"}, {"measurement": "biofilm formation in Lac Δagr", "setting": "[12]", "result": "biofilm inhibition was also observed"}]}
